Experimental data taken from ChEMBL document CHEMBL1926602, “Anisotropy studies of tRNA-T box antiterminator RNA complex in the presence of 1,4-disubstituted 1,2,3-triazoles” (Bioorg Med Chem Lett, 2011).

test system: Nucleic Acid; experiment: Inhibition of A73U tRNA(Tyr)-5'Rhd-AM1A T box antiterminator RNA complex assessed as reduction in anisotrophy changes by at 100 uM by fluorescence anisotropy-based assay relative to untreated control; type: nucleic-acid assay

SMILES | inhibition
CN(CCCc1ccccc1)Cc1cn(C2CCCCC2OC(=O)COc2ccccc2)nn1 (stereo not given) | 42%
CCCCCCCC(=O)OCC(O)Cn1cc(CN2CCOCC2)nn1 (stereo not given) | 0%
CN(CCc1ccccc1)Cc1cn(C2CCCCC2OC(=O)COc2ccccc2)nn1 (stereo not given) | 32%
CN(Cc1cn(C2CCCCC2O)nn1)CC1CCCCC1 (stereo not given) | 47%
CCCCC(O)Cn1cc(CN2CCOCC2)nn1 (stereo not given) | 0%
CCCCNC(=O)OCC(O)Cn1cc(CN2CCCC(C(=O)OCC)C2)nn1 (stereo not given) | 24%
O=C(COc1ccccc1)OC1CCCCC1n1cc(CN2CCC(c3ccccc3)CC2)nn1 (stereo not given) | 42%
CCCCC(O)Cn1cc(CN(C)CC2CCCCC2)nn1 (stereo not given) | 47%
CCCCN(CCCC)Cc1cn(CC(O)COC(=O)C2CCCCC2)nn1 (stereo not given) | 12%
CN(Cc1cn(C2CCCCC2OC(=O)Cc2ccccc2)nn1)CC1CCCCC1 (stereo not given) | 5%
O=C(OC1CCCCC1n1cc(CN2CCC(c3ccccc3)CC2)nn1)c1ccccc1 (stereo not given) | 16%
CCOC(=O)C1CCCN(Cc2cn(C3CCCCC3OC(=O)Cc3ccccc3)nn2)C1 (stereo not given) | 21%
O=C(OC1CCCCC1n1cc(CN2CCN(c3ccccc3)CC2)nn1)c1ccccc1 (stereo not given) | 21%
OC1CCCCC1n1cc(CN2CCN(c3ccccc3)CC2)nn1 (stereo not given) | 47%
OC(Cn1cc(CN2CCN(c3ccccc3)CC2)nn1)c1ccccc1 (stereo not given) | 32%
O=C(COc1ccccc1)OC1CCCCC1n1cc(CN2CCN(c3ccccc3)CC2)nn1 (stereo not given) | 37%

SMILES | inhibition
O=C(COc1ccccc1)OC1CCCCC1n1cc(CN2CCOCC2)nn1 (stereo not given) | 5%
OC1CCCCC1n1cc(CN2CCC(c3ccccc3)CC2)nn1 (stereo not given) | 42%
OC(COCc1ccccc1)Cn1cc(CN2CCN(c3ccccc3)CC2)nn1 (stereo not given) | 37%
CCCCC(O)Cn1cc(CN2CCCC(C(=O)OCC)C2)nn1 (stereo not given) | 53%
CCCCC(O)Cn1cc(CN(CCCC)CCCC)nn1 (stereo not given) | 18%
CCCCN(CCCC)Cc1cn(C2CCCCC2O)nn1 (stereo not given) | 32%
CCCCN(CCCC)Cc1cn(C2CCCCC2OC(=O)Cc2ccccc2)nn1 (stereo not given) | 53%
CN(Cc1cn(CC(O)COC(=O)C2CCCCC2)nn1)CC1CCCCC1 (stereo not given) | 18%
CCOC(=O)C1CCCN(Cc2cn(C3CCCCC3OC(=O)c3ccccc3)nn2)C1 (stereo not given) | 11%
CCCCNC(=O)OCC(O)Cn1cc(CN2CCOCC2)nn1 (stereo not given) | 5%
CCCCN(CCCC)Cc1cn(C2CCCCC2OC(=O)COc2ccccc2)nn1 (stereo not given) | 26%
CCOC(=O)C1CCCN(Cc2cn(C3CCCCC3OC(=O)COc3ccccc3)nn2)C1 (stereo not given) | 21%
CCOC(=O)C1CCCN(Cc2cn(C3CCCCC3O)nn2)C1 (stereo not given) | 16%
O=C(OCC(O)Cn1cc(CN2CCOCC2)nn1)C1CCCCC1 (stereo not given) | 11%
CN(Cc1cn(C2CCCCC2OC(=O)COc2ccccc2)nn1)CC1CCCCC1 (stereo not given) | 37%

More lines, now with the values ahead:

inhibition | SMILES
18% | CN(CCc1ccccc1)Cc1cn(CC(O)COCc2ccccc2)nn1 (stereo not given)
26% | CC(C)CCN(C)Cc1cn(CC(O)COC(=O)NCc2ccccc2)nn1 (stereo not given)
47% | CCCCC(O)Cn1cc(CN(C)CCC(C)C)nn1 (stereo not given)
6% | CCOC(=O)C1CCCN(Cc2cn(CC(O)COC(=O)c3ccccc3)nn2)C1 (stereo not given)
6% | CCCCN(CCCC)Cc1cn(CC(O)COCc2ccccc2)nn1 (stereo not given)
42% | CCCCN(CCCC)Cc1cn(CC(O)COC(=O)NCc2ccccc2)nn1 (stereo not given)
12% | CCCCNC(=O)OCC(O)Cn1cc(CN(C)CC2CCCCC2)nn1 (stereo not given)
32% | CN(Cc1cn(CC(O)COC(=O)NCc2ccccc2)nn1)CC1CCCCC1 (stereo not given)
29% | O=C(NCc1ccccc1)OCC(O)Cn1cc(CN2CCC(c3ccccc3)CC2)nn1 (stereo not given)
12% | CN(CCCc1ccccc1)Cc1cn(CC(O)COC(=O)c2ccccc2)nn1 (stereo not given)
21% | CN(CCc1ccccc1)Cc1cn(C2CCCCC2O)nn1 (stereo not given)
0% | CC(C)CCN(C)Cc1cn(CC(O)COC(=O)c2ccccc2)nn1 (stereo not given)
6% | CN(Cc1cn(CC(O)COCc2ccccc2)nn1)CC1CCCCC1 (stereo not given)
5% | O=C(OCC(O)Cn1cc(CN2CCOCC2)nn1)c1ccccc1 (stereo not given)
71% | CCCCCCCC(=O)OCC(O)Cn1cc(CN(CCCC)CCCC)nn1 (stereo not given)
47% | CCCCC(O)Cn1cc(CN2CCN(c3ccccc3)CC2)nn1 (stereo not given)
12% | CCCCN(CCCC)Cc1cn(CC(O)COC(=O)c2ccccc2)nn1 (stereo not given)
47% | CCOC(=O)C1CCCN(Cc2cn(CC(O)COC(=O)NCc3ccccc3)nn2)C1 (stereo not given)
0% | CC(C)CCN(C)Cc1cn(CC(O)COC(=O)C2CCCCC2)nn1 (stereo not given)
32% | CN(Cc1ccccc1)Cc1cn(CC(O)c2ccccc2)nn1 (stereo not given)

inhibition | SMILES
42% | CC(C)CCN(C)Cc1cn(C2CCCCC2O)nn1 (stereo not given)
0% | CN(CCc1ccccc1)Cc1cn(CC(O)COC(=O)c2ccccc2)nn1 (stereo not given)
26% | CC(C)CCN(C)Cc1cn(C2CCCCC2OC(=O)c2ccccc2)nn1 (stereo not given)
12% | CCCCCCCC(=O)OCC(O)Cn1cc(CN(C)CCCc2ccccc2)nn1 (stereo not given)
42% | CN(CCc1ccccc1)Cc1cn(CC(O)COC(=O)NCc2ccccc2)nn1 (stereo not given)
37% | CCCCC(O)Cn1cc(CN(C)CCCc2ccccc2)nn1 (stereo not given)
11% | CCCCNC(=O)OCC(O)Cn1cc(CN2CCN(c3ccccc3)CC2)nn1 (stereo not given)
59% | CC(C)CCN(C)Cc1cn(C2CCCCC2OC(=O)COc2ccccc2)nn1 (stereo not given)
32% | CN(Cc1cn(C2CCCCC2OC(=O)c2ccccc2)nn1)CC1CCCCC1 (stereo not given)
11% | O=C(OCC(O)Cn1cc(CN2CCN(c3ccccc3)CC2)nn1)c1ccccc1 (stereo not given)
24% | CCCCNC(=O)OCC(O)Cn1cc(CN(C)CCC(C)C)nn1 (stereo not given)
18% | CN(CCCc1ccccc1)Cc1cn(CC(O)COCc2ccccc2)nn1 (stereo not given)
26% | CCOC(=O)C1CCCN(Cc2cn(CC(O)COCc3ccccc3)nn2)C1 (stereo not given)
58% | CC(C)CCN(C)Cc1cn(CC(O)c2ccccc2)nn1 (stereo not given)
6% | CN(Cc1cn(CC(O)COC(=O)c2ccccc2)nn1)CC1CCCCC1 (stereo not given)
26% | CCCCCCCC(=O)OCC(O)Cn1cc(CN2CCN(c3ccccc3)CC2)nn1 (stereo not given)
32% | O=C(NCc1ccccc1)OCC(O)Cn1cc(CN2CCN(c3ccccc3)CC2)nn1 (stereo not given)
79% | CN(CCCc1ccccc1)Cc1cn(CC(O)COC(=O)NCc2ccccc2)nn1 (stereo not given)
16% | CCCCC(O)Cn1cc(CN2CCC(c3ccccc3)CC2)nn1 (stereo not given)
29% | CCCCC(O)Cn1cc(CN(C)CCc2ccccc2)nn1 (stereo not given)

test system: Nucleic Acid; experiment: Stabilization of A73U tRNA(Tyr)-5'Rhd-AM1A T box antiterminator RNA complex assessed as increase in anisotrophy changes by at 100 uM by fluorescence anisotropy-based assay relative to untreated control; type: nucleic-acid assay

SMILES | Activity
CCOC(=O)C1CCCN(Cc2cn(CC(O)COC(=O)C3CCCCC3)nn2)C1 (stereo not given) | 6%
O=C(OC1CCCCC1n1cc(CN2CCOCC2)nn1)c1ccccc1 (stereo not given) | 6%
OC1CCCCC1n1cc(CN2CCOCC2)nn1 (stereo not given) | 24%
O=C(Cc1ccccc1)OC1CCCCC1n1cc(CN2CCOCC2)nn1 (stereo not given) | 6%

Next, values leading:

Activity | SMILES
6% | CCOC(=O)C1CCCN(Cc2cn(CC(O)c3ccccc3)nn2)C1 (stereo not given)
12% | OC(COCc1ccccc1)Cn1cc(CN2CCOCC2)nn1 (stereo not given)
18% | CCCCNC(=O)OCC(O)Cn1cc(CN(CCCC)CCCC)nn1 (stereo not given)
6% | OC(Cn1cc(CN2CCOCC2)nn1)c1ccccc1 (stereo not given)
6% | CN(Cc1cn(CC(O)c2ccccc2)nn1)CC1CCCCC1 (stereo not given)
